Data on three substances can be found in paper PMC7606587 (Nuclear medicine and biology, 2020).

Like-named read-outs stand apart in the source and are kept apart here. Bounds are passed on as bounds.

For the data set, the system named is C4–2B prostate cancer xenografts. The format is in vivo, athymic (BALB/c nu/nu) mice. The following applies: for blood clearance (in words): 1 and 4 h pi.
The mark [1] stands for this setting: C4–2B xenograft, 4 h pi, tail vein injection.
[2] abbreviates: C4–2B xenograft, time point not stated at the place (study at 1, 4, 24 h pi).

For “3-B10H9-dioxa-5-LuG-dPEG4-Ph-Lys-Ac [[^131I]16b]”, the “tumor concentration relative to [131I]16a” value (C4–2B xenograft) is listed as ~ 4 ×. In addition, the tumor concentration under setting [1] is recorded as ~ 15 %ID/g and the tumor concentration under setting [2] is on record as 14–15 %ID/g.

For “3-B10H9-dioxa-5-LuG-dPEG12-Ph-Lys-Ac [[^131I]16a]”, the “blood clearance (in words)” value is “rapid blood clearance”. Moreover, under “1 h pi”, the highest spleen concentration amounted to 9 %ID/g and the “tumor concentration relative to blood concentration” value amounted to 2.3 ×. Besides, where the note is “4 h pi”, the kidney concentration was ~ 94 %ID/g and the “tumor concentration relative to blood concentration” value is recorded as 4.7 ×. The kidney concentration (4 h pi, listed as 16a) is 94 %ID/g. Besides, where the note is “C4–2B xenograft, 1 h pi”, the tumor concentration is on record as ~ 4 % ID/g. The tumor concentration under setting [1] is ~ 4 %ID/g. The same substance had a tumor concentration (C4–2B xenograft, at 1 and 4 h pi) of less than 5 %ID/g. The tumor concentration under setting [2] was ~ 4 %ID/g.

On to “3-B10H9-dioxa-5-dPEG12CO2H-Ph-Lys-Ac [[^125I]9a]”, for which the “blood clearance (in words)” value is listed as “rapid blood clearance”. Also, for the setting “1 h pi”, the “concentration in all the tissues except for the intestine” value was “lower than 2 % ID/g” and the intestine concentration worked out at 12 %ID/g. For the setting “C4–2B xenograft”, the “tumor uptake / tumor targeting (in words)” value is on record as “essentially no tumor uptake”.
